13 compounds from US8648090B2, “Indole alkaloid derivatives having opioid receptor agonistic effect, and therapeutic compositions and methods relating to same” (National University Corporation Chiba University, priority 2007, dated 2014) can be followed below.

Read-outs that look alike come from different tables or passages of the source.

For one data set, the system named is guinea pig ileum. As to the kind of experiment: Twitch contraction induced by electrical stimulation in guinea pig isolated ileum (Magnus assay). The note with it: for Emax / EC50: Cavia porcellus; for EC50: read-out: pD2 value (−log M) (converted); for Relative Potency (%): against morphine (100); for Inhibitory activity (%): maximum inhibition as percentage of that by morphine, intrinsic activity on opioid receptors; for pD2 value (−log M): negative logarithm of EC50, mean ± SEM of five or six animals; for Maximum inhibition (%): response at plateau, twitch contraction regarded as 100%.

Data set [1] concerns mice. Description: Tail-flick test, analgesic effect after oral administration. The data set is classed as in vivo. The note with it: for ED50: Mus musculus; for ED50 / ED50 analgesic effect (tail-flick): mice, (95% confidence limits); for times more potent analgesic effect than morphine: mouse tail-flick test. An excerpt:
Analgesia was quantified using the percentage of maximum possible effect (% MPE) and calculated as: % MP=[(test latency−pre-drug latency)/(cut-off time−pre-drug latency)]×100. A cut-off time of 10 s was used to prevent tissue damage. Each value represents mean±S.E.M. of data obtained from 7 to 9 mice.
(§1) Mice respond to a focused heat stimulus by flicking or moving their tail from the path of the stimulus, thereby exposing a photocell located in the tail-flick analgesia meter (Ugo Basile Tail-flick Unit 7360, Ugo Basile, Comerio, Italy) immediately below the tail. The reaction time is automatically recorded. Prior to treatment with drugs, vehicle, or saline, the nociceptive threshold was measured three times, and the mean of the reaction time was used as the pre-drug latency for each mouse. A cut-off time of 10 s was used to prevent tissue damage. Analgesia was quantified using the percentage of maximum possible effect (% MPE) and calculated as: % MPE=[(test latency−pre-drug latency)/(cut-off time−pre-drug latency)]×100.
(§2) The data are expressed as the mean±S.E.M. Statistical analyses were performed with two-tailed Student's t-test for comparison of two groups, and by a one-way analysis of variance followed by a Bonferroni multiple comparison test for comparison of more than two groups. A P value <0.05 was considered statistically significant.
(In general: Hot-plate and tail-flick tests time the reaction to a heat stimulus.)

The nature of data set [2]: Gastrointestinal transit (charcoal meal), constipating effect after oral administration. Format: in vivo. The note with it: mouse, in vivo; oral administration, mice; (95% confidence limits); read-out: ED50 inhibitory effect on gastrointestinal transit (GIT), constipating ED50. The protocol: (§3) The inhibition of gastrointestinal transit (%) was calculated as: Inhibition of gastrointestinal transit (%)=[(saline or vehicle GIT−drug GIT)/(saline or vehicle GIT)]×100. Each value represents mean±S.E.M. of 7 or 8 mice.
(§4) Mice were fasted, with water available ad libitum, for 18 h before the experiments. […] Thirty minutes after administration of the charcoal meal, the animal was sacrificed by cervical dislocation, and the small intestine from the pylorus to the ileocecum was carefully removed. Both the length of the small intestine from the pylorus to the ileocecum and the farthest distance to which the charcoal meal had traveled were measured. For each animal, the gastrointestinal transit (GIT) was calculated as the percentage of distance traveled by the charcoal meal relative to the total length of the small intestine. The inhibition of gastrointestinal transit (%) was calculated as: Inhibition of gastrointestinal transit (%)=[(saline or vehicle GIT−drug GIT)/(saline or vehicle GIT)]×100.
as §2

In data set [3] the test system is mice. The data set is described as above. Format: in vivo. The note with it: oral, GIT ED50 versus tail-flick ED50. The protocol: as §3, §4, §2
For data set [4], the system named is mice. Description: Effects of opioid receptor antagonists on analgesia induced by s.c. administration, mouse tail-flick test. The note with it: s.c. compound; for effect of naloxone on analgesic effect: non-selective opioid antagonist naloxone, data not shown; for effect of naltrindole on analgesic effect: δ-opioid receptor selective antagonist NTI 3 mg/kg; for effect of nor-binaltorphimine on analgesic effect: κ-opioid receptor selective antagonist norBNI 20 mg/kg; for effect of β-funaltrexamine on analgesic effect: μ-opioid receptor selective antagonist β-FNA 40 mg/kg. The data set is classed as in vivo. The protocol: The analgesic effects were determined in the mouse tail-flick test after s.c. administration of the following antagonists: β-funaltrexamine (β-FNA, 40 mg/kg), naltrindole (NTI, 3 mg/kg), and nor-binaltorphimine (norBNI, 20 mg/kg). Measurements were performed 15 min after s.c. administration of compound 11, compound 26 and compound 27. […] Each value represents mean±S.E.M. of 8 or 9 mice.
as §1

Setting [5] is: read-out: Inhibitory activity (%).
The mark [6] stands for this setting: read-out: Maximum inhibition (%).

Procedure for guinea pig ileum: The opioid agonistic effect was evaluated in an experiment involving twitch contraction induced by electrical stimulation of guinea pig ileum.
The guinea-pig ileum was dissected and placed in Krebs-Henseleit solution (in mM: NaCl, 112.08; KCl, 5.90; CaCl2, 1.97; MgCl2, 1.18; NaH2PO4, 1.22; NaHCO3, 25.00, and glucose, 11.49). The ileum was placed under 1 g tension in a 5 ml organ bath containing the nutrient solution. The bath was maintained at 37° C. and continuously bubbled with a mixture of 95% O2 and 5% CO2. Tissues were stimulated by a platinum needle-ring (the ring was placed 20 mm above the base of a 5 mm long needle) electrode. After equilibration, the ileum was transmurally stimulated with monophasic pulses (0.2 Hz and 0.1 ms duration) by a stimulator (SEN-7203, Nihon Kohden, Tokyo, Japan). Contractions were isotonically recorded by using a displacement transducer (NEC Type 45347, San-ei Instruments Ltd., Tokyo, Japan). The effects of drug treatments on the twitch contractions evoked by transmural stimulation elicited through the ring electrodes were examined. The height of the twitch response to transmural stimulation was measured before and after the drug challenge. The responses were expressed as % inhibition of the twitch response to the transmural stimulation before the drug challenge.
Male albino guinea pigs (Japan SLC) weighing 320-550 g were used. Animals were housed in a temperature-controlled room at 24° C. with lights on from 07:00-19:00 and had free access to food and water. The guinea-pig ileum was dissected and placed in Krebs-Henseleit solution (in mM: NaCl, 112.08; KCl, 5.90; CaCl2, 1.97; MgCl2, 1.18; NaH2PO4, 1.22; NaHCO3, 25.00, and glucose, 11.49). The ileum was set up under 1 g of tension in 5 mL of an organ bath containing the nutrient solution. The bath was maintained at 37° C. and continuously bubbled with a gas mixture of 95% O2 and 5% CO2. At the start of each experiment, the maximum response to acetylcholine (3 μM) was obtained for each tissue to check its suitability. Tissues were stimulated through platinum needle-ring (a ring was placed 20 mm above the base of a needle 5 mm in length) electrodes using square wave pulses of supramaximal voltage. The ileum was transmurally stimulated with monophasic pulses (0.2 Hz) at 0.3 ms duration by a stimulator (SEN-7203, Nihon Kohden, Tokyo, Japan). Contractions were isotonically recorded with a displacement transducer (NEC, San-ei Instruments Ltd., Type 45347), a DC strain amplifier (San-ei 6M92), and a DC recorder (Hitachi, Mod 056, Tokyo, Japan). All concentration-response curves were constructed in a cumulative manner. The height of the twitch response to transmural stimulation was measured before and after drug challenge. The twitch response remaining after each sample addition was determined by dividing the height after its addition by the height before addition multiplied by 100. To obtain the percentage inhibition, this value was subtracted from 100. […] To investigate the involvement of opioid receptors in the inhibitory effect of the samples, the antagonistic effect of the opioid receptor antagonist naloxone was examined. The inhibitory effects of samples on electrically stimulated contraction were regarded as opioid activities when the antagonistic effect of naloxone was observed.

On to `CC[C@@H]1CN2CC[C@@]3(O)C(=Nc4ccc(Br)c(OC)c43)[C@@H]2C[C@@H]1/C(=C\OC)C(=O)OC` [Compound 24, 7-Hydroxy-10-bromomitragynine], for which, in the data set on guinea pig ileum (setting [5]), the Emax was found to be 71%. The Emax in the data set on guinea pig ileum (setting [6]) was determined as 61.7 ± 6.2%. Further, in the data set on guinea pig ileum, the EC50 was 0.0355 µM and the “Relative Potency (%)” value is on record as 199%.

Turning to `CC[C@@H]1CN2CC[C@@]34OCCO[C@@]3(Nc3ccc([N+](=O)[O-])c(OC)c34)[C@@H]2C[C@@H]1/C(=C\OC)C(=O)OC` [Compound 14a], in the data set with guinea pig ileum, the “Relative Potency (%)” value came out at 537%, the “Inhibitory activity (%)” value is recorded as 75%, the “pD2 value (−log M)” value is on record as 7.88 ± 0.18 −log M and the “Maximum inhibition (%)” value is given as 65.0 ± 4.3%.

For the compound `CC[C@@H]1CN2CC[C@@]34OCCO[C@@]3(Nc3ccc(F)c(OC)c34)[C@@H]2C[C@@H]1/C(=C\OC)C(=O)OC` [Compound 11], in the data set with mice [1], the ED50 (commonly the dose that gives a 50% effect, or the effect in half of the subjects) was found to be 2.84 mg/kg and the “times more potent analgesic effect than morphine” value is reported as 22 times. Besides, in data set [2], the ED50 was found to be 11.1 mg/kg. The “constipating ED50 times larger than analgesic ED50” value in the data set on mice [3] stood at 4 times. Also, in the data set with mice [4], the “effect of naloxone on analgesic effect” value is given as “completely blocked”, the “effect of naltrindole on analgesic effect” value is “ineffective”, the “effect of nor-binaltorphimine on analgesic effect” value is “markedly inhibited” and the “effect of β-funaltrexamine on analgesic effect” value is “markedly inhibited”. Moreover, in the data set on guinea pig ileum (setting [5]), the Emax is 96%. In addition, in the data set with guinea pig ileum (setting [6]), the Emax worked out at 83.4 ± 3.2%. For the same compound, in the data set on guinea pig ileum, the EC50 was 0.00398 µM and the “Relative Potency (%)” value is recorded as 1778%.

`CC[C@@H]1CN2CC[C@@]3(O)C(=Nc4ccc(F)c(OC)c43)[C@@H]2C[C@@H]1/C(=C\OC)C(=O)OC` [Compound 22, 7-Hydroxy-10-fluoromitragynine]: the Emax with guinea pig ileum (setting [5]) turned out to be 95%; with guinea pig ileum (setting [6]), 82.5 ± 1.8%. Also, the EC50 in the data set with guinea pig ileum was 0.0135 µM. Further, the “Relative Potency (%)” value in the data set on guinea pig ileum is on record as 524%.

On to `CN1CC[C@]23c4c5ccc(O)c4O[C@H]2[C@@H](O)C=C[C@H]3[C@H]1C5` [Morphine, reference compound], for which the ED50 was found to be 63 mg/kg in the data set on mice [1] and 11.7 mg/kg in data set [2]. In addition, the “constipating ED50 times smaller than analgesic ED50” value in the data set with mice [3] is 5 times. Also, the Emax was 100% in the data set with guinea pig ileum (setting [5]) and 87.2 ± 1.8% with guinea pig ileum (setting [6]).

Consider `C[C@@]12Nc3ccccc3[C@]1(C)OCCO2`, for which the melting point (as a rule, the temperature of the solid-liquid transition) lay in the range of 79 to 81 °C.

For the compound `CC[C@@H]1CN2CCc3c([nH]c4cccc(OC)c34)[C@@H]2C[C@@H]1/C(=C\OC)C(=O)OC` [Compound 2, Mitragynine, reference compound], in the data set with guinea pig ileum (setting [5]), the Emax came to 83%. For the same compound, in the data set with guinea pig ileum (setting [6]), the Emax was determined as 72 ± 5%. In the data set on guinea pig ileum, the EC50 was 0.316 µM and the “Relative Potency (%)” value was 22%.

As to `CC[C@@H]1CN2CC[C@@]3(O)C(=Nc4cccc(OC)c43)[C@@H]2C[C@@H]1/C(=C\OC)C(=O)OC` [Compound 1, 7-hydroxymitragynine, reference compound], in the data set with mice [1], the ED50 was determined as 4.43 mg/kg and the “times more potent analgesic effect than morphine” value stood at 14 times. Besides, the ED50 in data set [2] came out at 7.5 mg/kg. In addition, the Emax with guinea pig ileum (setting [5]) amounted to 104%. Further, the Emax in the data set with guinea pig ileum (setting [6]) amounted to 90.8 ± 3.4%. Also, in the data set on guinea pig ileum, the EC50 was 0.0166 µM and the “Relative Potency (%)” value was determined as 426%.

Turning to `CC[C@@H]1CN2CC[C@@]34OCCO[C@@]3(Nc3cccc(OC)c34)[C@@H]2C[C@@H]1/C(=C\OC)C(=O)OC` [Compound 3], the Emax in the data set with guinea pig ileum (setting [5]) came to 40%. The Emax with guinea pig ileum (setting [6]) worked out at 35 ± 11%. Further, in the data set on guinea pig ileum, the EC50 is 0.02 µM and the “Relative Potency (%)” value is reported as 354%.

Consider `CC[C@@H]1CN2CC[C@@]3(O)C(=Nc4ccc(Cl)c(OC)c43)[C@@H]2C[C@@H]1/C(=C\OC)C(=O)OC` [Compound 23, 7-Hydroxy-10-chloromitragynine], for which the Emax in the data set on guinea pig ileum (setting [5]) was found to be 86%. In addition, the Emax with guinea pig ileum (setting [6]) amounted to 74.8 ± 3%. Besides, in the data set on guinea pig ileum, the EC50 was 0.0295 µM and the “Relative Potency (%)” value came out at 239%.

With `c1ccc2c(c1)N[C@]13CCCC[C@]21OCCO3`, the melting point was in the range of 156 to 157 °C.

Consider `CC[C@@H]1CN2CC[C@@]34OCCO[C@@]3(Nc3ccc(Cl)c(OC)c34)[C@@H]2C[C@@H]1/C(=C\OC)C(=O)OC` [Compound 12a], for which, in the data set with guinea pig ileum, the “Relative Potency (%)” value is 288%, the “Inhibitory activity (%)” value is on record as 55%, the “pD2 value (−log M)” value is recorded as 7.61 ± 0.17 −log M and the “Maximum inhibition (%)” value is listed as 48.1 ± 9.3%.

In the case of `CCC1CN2CCC3(O)c4c(ccc(F)c4OC)NC3C2CC1C(=COC)C(=O)OC` (centres unmarked) [Compound 27], in the data set on mice [1], the “ED50 analgesic effect (tail-flick)” value was 0.263 (0.165-0.420) mg/kg and the “times more potent analgesic effect than morphine” value stood at 240 times. For the same compound, the “ED50 analgesic effect (tail-flick)” value with mice [1] (listed as compound 27) was determined as 0.26 mg/kg. In the data set with mice [4], the “effect of naloxone on analgesic effect” value was “completely blocked”, the “effect of naltrindole on analgesic effect” value is “moderately inhibited”, the “effect of nor-binaltorphimine on analgesic effect” value is recorded as “had no effect” and the “effect of β-funaltrexamine on analgesic effect” value is reported as “markedly inhibited”. In the data set on guinea pig ileum, the “Relative Potency (%)” value came to 4571%, the “Inhibitory activity (%)” value worked out at 102%, the “pD2 value (−log M)” value is on record as 8.81 ± 0.09 −log M and the “Maximum inhibition (%)” value was found to be 89.0 ± 2.3%.
